Reference: PubChem BioAssay AID2060501 (Molecular Pharmacology Branch, DTP, NCI, 2025)

System: 282377-053-R-J1-PDC complex spheroids, viability
Experiment: Anticancer human tumor 282377-053-R-J1-PDC patient-derived colon adenocarcinoma cell line growth inhibition [GQUAD]
Conditions: for IC50: curve of first compound; for viability, T/C: stronger effect = lower value
Method in brief: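 Viability of tumor cells grown as complex spheroids with endothelial and stromal cells, exposed to drug combinations. Top concentration at or near clinical Cmax (else 10 microM), diluted in half-log increments.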

[1] = second compound 0.0316 µM, first compound 0.0316 µM
[2] = second compound 0.0316 µM, first compound 0.1 µM
[3] = second compound 0.0316 µM, first compound 0.316 µM
[4] = second compound 0.0316 µM, first compound 1 µM
[5] = second compound 0.0316 µM, first compound 3.16 µM
[6] = second compound 0.0316 µM, first compound 10 µM
[7] = second compound 0.1 µM, first compound 0.0316 µM
[8] = second compound 0.1 µM, first compound 0.1 µM
[9] = second compound 0.1 µM, first compound 0.316 µM
[10] = second compound 0.1 µM, first compound 1 µM
[11] = second compound 0.1 µM, first compound 3.16 µM
[12] = second compound 0.1 µM, first compound 10 µM
[13] = second compound 0.316 µM, first compound 0.0316 µM
[14] = second compound 0.316 µM, first compound 0.1 µM
[15] = second compound 0.316 µM, first compound 0.316 µM
[16] = second compound 0.316 µM, first compound 1 µM
[17] = second compound 0.316 µM, first compound 3.16 µM
[18] = second compound 0.316 µM, first compound 10 µM
[19] = second compound 1 µM, first compound 0.0316 µM
[20] = second compound 1 µM, first compound 0.1 µM
[21] = second compound 1 µM, first compound 0.316 µM
[22] = second compound 1 µM, first compound 1 µM
[23] = second compound 1 µM, first compound 3.16 µM
[24] = second compound 1 µM, first compound 10 µM
[25] = second compound 3.16 µM, first compound 0.0316 µM
[26] = second compound 3.16 µM, first compound 0.1 µM
[27] = second compound 3.16 µM, first compound 0.316 µM
[28] = second compound 3.16 µM, first compound 1 µM
[29] = second compound 3.16 µM, first compound 3.16 µM
[30] = second compound 3.16 µM, first compound 10 µM
[31] = second compound 10 µM, first compound 0.0316 µM
[32] = second compound 10 µM, first compound 0.1 µM
[33] = second compound 10 µM, first compound 0.316 µM
[34] = second compound 10 µM, first compound 1 µM
[35] = second compound 10 µM, first compound 3.16 µM
[36] = second compound 10 µM, first compound 10 µM
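Further: spheroids exposed to compounds for 7 days before readout.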
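Wherever viability, T/C is given: percent of vehicle DMSO control viability with 100% = untreated-like growth.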

## CC(C)(O)C1CCC(Nc2ccc3ncc(-c4cccc(C(F)(F)F)c4)n3n2)CC1 (stereo not drawn) + Cc1[nH]c2ccc(F)cc2c1-c1nc2c3cccnc3c3ncccc3c2[nH]1
Second compound 0.0316 µM
  IC50: > 10000 nM
Second compound 0.1 µM
  IC50: > 10000 nM
Second compound 0.316 µM
  IC50: > 10000 nM
Second compound 1 µM
  IC50: > 10000 nM
Second compound 3.16 µM
  IC50: > 10000 nM
Second compound 10 µM
  IC50: 2900 nM
[1]
  viability, T/C: 107%
[2]
  viability, T/C: 95.9%
[3]
  viability, T/C: 114%
[4]
  viability, T/C: 103%
[5]
  viability, T/C: 86.1%
[6]
  viability, T/C: 76.9%
[7]
  viability, T/C: 122%
[8]
  viability, T/C: 103%
[9]
  viability, T/C: 91.5%
[10]
  viability, T/C: 95.3%
[11]
  viability, T/C: 103%
[12]
  viability, T/C: 73.3%
[13]
  viability, T/C: 107%
[14]
  viability, T/C: 96.7%
[15]
  viability, T/C: 87.7%
[16]
  viability, T/C: 95.1%
[17]
  viability, T/C: 103%
[18]
  viability, T/C: 91.9%
[19]
  viability, T/C: 115%
[20]
  viability, T/C: 95.8%
[21]
  viability, T/C: 88.8%
[22]
  viability, T/C: 118%
[23]
  viability, T/C: 81.4%
[24]
  viability, T/C: 92.3%
[25]
  viability, T/C: 88.8%
[26]
  viability, T/C: 71.1%
[27]
  viability, T/C: 70.7%
[28]
  viability, T/C: 79.2%
[29]
  viability, T/C: 100%
[30]
  viability, T/C: 63.1%
[31]
  viability, T/C: 61.9%
[32]
  viability, T/C: 51.5%
[33]
  viability, T/C: 75.6%
[34]
  viability, T/C: 48.4%
[35]
  viability, T/C: 46.9%
[36]
  viability, T/C: 42.7%

## O=C(NO)c1cnc(N2CCN(S(=O)(=O)c3ccc4ccccc4c3)CC2)nc1 + Cc1[nH]c2ccc(F)cc2c1-c1nc2c3cccnc3c3ncccc3c2[nH]1
Second compound 0.0316 µM
  IC50: 56.3 nM
Second compound 0.1 µM
  IC50: 55.3 nM
Second compound 0.316 µM
  IC50: 45.2 nM
Second compound 1 µM
  IC50: 40.2 nM
Second compound 3.16 µM
  IC50: < 31.6 nM
Second compound 10 µM
  IC50: < 31.6 nM
[1]
  viability, T/C: 78%
[2]
  viability, T/C: 17.6%
[3]
  viability, T/C: 18.6%
[4]
  viability, T/C: 19.8%
[5]
  viability, T/C: 24%
[6]
  viability, T/C: 30.6%
[7]
  viability, T/C: 78%
[8]
  viability, T/C: 18.6%
[9]
  viability, T/C: 16.4%
[10]
  viability, T/C: 18.6%
[11]
  viability, T/C: 21.2%
[12]
  viability, T/C: 26.9%
[13]
  viability, T/C: 63.6%
[14]
  viability, T/C: 18.4%
[15]
  viability, T/C: 17.1%
[16]
  viability, T/C: 18.1%
[17]
  viability, T/C: 21.4%
[18]
  viability, T/C: 22.9%
[19]
  viability, T/C: 58.7%
[20]
  viability, T/C: 15.1%
[21]
  viability, T/C: 19.3%
[22]
  viability, T/C: 13.7%
[23]
  viability, T/C: 16.1%
[24]
  viability, T/C: 21.8%
[25]
  viability, T/C: 30.5%
[26]
  viability, T/C: 7.85%
[27]
  viability, T/C: 7.14%
[28]
  viability, T/C: 6.02%
[29]
  viability, T/C: 6.61%
[30]
  viability, T/C: 7.81%
[31]
  viability, T/C: 19.7%
[32]
  viability, T/C: 7.83%
[33]
  viability, T/C: 5.03%
[34]
  viability, T/C: 6.51%
[35]
  viability, T/C: 4.71%
[36]
  viability, T/C: 7.67%

## CC(C)n1c(=O)n(C)c2cnc3cc(F)c(-c4ccc(OCCCN5CCCCC5)nc4)cc3c21 + Cc1cnc(CNC(=O)c2c(=O)c3ccc(N4CCCN(C)CC4)nc3n3c2sc2ccccc23)cn1
Second compound 0.0316 µM
  IC50: > 10000 nM
Second compound 0.1 µM
  IC50: > 10000 nM
Second compound 0.316 µM
  IC50: > 10000 nM
Second compound 1 µM
  IC50: < 31.6 nM
Second compound 3.16 µM
  IC50: < 31.6 nM
Second compound 10 µM
  IC50: < 31.6 nM
[1]
  viability, T/C: 101%
[2]
  viability, T/C: 76.5%
[3]
  viability, T/C: 102%
[4]
  viability, T/C: 76.5%
[5]
  viability, T/C: 94%
[6]
  viability, T/C: 86.5%
[7]
  viability, T/C: 84.7%
[8]
  viability, T/C: 80.2%
[9]
  viability, T/C: 81.3%
[10]
  viability, T/C: 90.2%
[11]
  viability, T/C: 83.7%
[12]
  viability, T/C: 72.6%
[13]
  viability, T/C: 69.2%
[14]
  viability, T/C: 61.9%
[15]
  viability, T/C: 70.9%
[16]
  viability, T/C: 76.2%
[17]
  viability, T/C: 78.5%
[18]
  viability, T/C: 64.2%
[19]
  viability, T/C: 47.4%
[20]
  viability, T/C: 48.3%
[21]
  viability, T/C: 49.9%
[22]
  viability, T/C: 46.6%
[23]
  viability, T/C: 56.8%
[24]
  viability, T/C: 67.7%
[25]
  viability, T/C: 48.9%
[26]
  viability, T/C: 45.8%
[27]
  viability, T/C: 51.6%
[28]
  viability, T/C: 43.7%
[29]
  viability, T/C: 53.5%
[30]
  viability, T/C: 45.9%
[31]
  viability, T/C: 44.6%
[32]
  viability, T/C: 33.5%
[33]
  viability, T/C: 39.9%
[34]
  viability, T/C: 45%
[35]
  viability, T/C: 40.6%
[36]
  viability, T/C: 23.5%

## Cn1ncnc1[C@H]1c2n[nH]c(=O)c3cc(F)cc(c23)N[C@@H]1c1ccc(F)cc1 + Cc1cnc(CNC(=O)c2c(=O)c3ccc(N4CCCN(C)CC4)nc3n3c2sc2ccccc23)cn1
Second compound 0.0316 µM
  IC50: > 316 nM
Second compound 0.1 µM
  IC50: > 316 nM
Second compound 0.316 µM
  IC50: > 316 nM
Second compound 1 µM
  IC50: 285 nM
Second compound 3.16 µM
  IC50: 32.7 nM
Second compound 10 µM
  IC50: < 0.999 nM
Second compound 0.0316 µM, first compound 0.000999 µM
  viability, T/C: 111%
Second compound 0.0316 µM, first compound 0.00316 µM
  viability, T/C: 87.7%
Second compound 0.0316 µM, first compound 0.00999 µM
  viability, T/C: 104%
[1]
  viability, T/C: 107%
Second compound 0.0316 µM, first compound 0.0999 µM
  viability, T/C: 95.9%
[3]
  viability, T/C: 102%
Second compound 0.1 µM, first compound 0.000999 µM
  viability, T/C: 109%
Second compound 0.1 µM, first compound 0.00316 µM
  viability, T/C: 101%
Second compound 0.1 µM, first compound 0.00999 µM
  viability, T/C: 98.7%
[7]
  viability, T/C: 94%
Second compound 0.1 µM, first compound 0.0999 µM
  viability, T/C: 115%
[9]
  viability, T/C: 116%
Second compound 0.316 µM, first compound 0.000999 µM
  viability, T/C: 86.1%
Second compound 0.316 µM, first compound 0.00316 µM
  viability, T/C: 84.1%
Second compound 0.316 µM, first compound 0.00999 µM
  viability, T/C: 88.4%
[13]
  viability, T/C: 93.2%
Second compound 0.316 µM, first compound 0.0999 µM
  viability, T/C: 79%
[15]
  viability, T/C: 71.9%
Second compound 1 µM, first compound 0.000999 µM
  viability, T/C: 65.7%
Second compound 1 µM, first compound 0.00316 µM
  viability, T/C: 66.1%
Second compound 1 µM, first compound 0.00999 µM
  viability, T/C: 52.5%
[19]
  viability, T/C: 62.5%
Second compound 1 µM, first compound 0.0999 µM
  viability, T/C: 51.5%
[21]
  viability, T/C: 49.4%
Second compound 3.16 µM, first compound 0.000999 µM
  viability, T/C: 56.6%
Second compound 3.16 µM, first compound 0.00316 µM
  viability, T/C: 47.2%
Second compound 3.16 µM, first compound 0.00999 µM
  viability, T/C: 51.5%
[25]
  viability, T/C: 49.5%
Second compound 3.16 µM, first compound 0.0999 µM
  viability, T/C: 52.3%
[27]
  viability, T/C: 46.2%
Second compound 10 µM, first compound 0.000999 µM
  viability, T/C: 43.3%
Second compound 10 µM, first compound 0.00316 µM
  viability, T/C: 44.1%
Second compound 10 µM, first compound 0.00999 µM
  viability, T/C: 52.4%
[31]
  viability, T/C: 45.1%
Second compound 10 µM, first compound 0.0999 µM
  viability, T/C: 51%
[33]
  viability, T/C: 46.7%
